d = 2'-deoxy (DNA); r = 2'-OH (RNA)
Test system: LHPP gene
Test: High-throughput screening of saRNAs targeting LHPP promoter: LHPP mRNA by one-step RT-qPCR in Huh7 cells
Type: cell-based, human
Details: 10 nM saRNA, 72 hours, relative to control (Mock)
Method: Human liver cancer cell line Huh7 was cultured in DMEM medium (Gibco), containing 10% of calf serum (Sigma-Aldrich) and 1% of penicillin/streptomycin (Gibco). The cells were cultured at 5% CO2 and 37° C. According to the instructions provided by the manufacturer, RNAiMax (Invitrogen, Carlsbad, Calif.) was used to transfect small activating RNAs at a concentration of 10 nM (unless otherwise specified).
At the end of transfection, the media were discarded, and each well was washed with 150 μL of PBS once. After discarding the PBS, 50 μL of cell lysis buffer (Takara) was added to each well and incubated at room temperature for 5 min. 1 μL of the resulted cell lysis was taken from each well and analyzed by qPCR on an ABI 7500 fast real-time PCR system (Applied Biosystems) using a one-step TB Green™ PrimeScrip™ RT-PCR kit II (Takara, RR086A) Each transfection sample was repeatedly amplified in 3 replicate wells.
Reaction conditions were as follows: reverse transcription reaction (stage 1): 5 min at 42° C., 10 s at 95° C.; PCR reaction (stage 2): 5 s at 95° C., 20 s at 60° C., 45 cycles of amplification. HPRT1 and TBP were used as internal reference genes. PCR primers used for amplifying LHPP, HPRT1 and TBP genes are shown in Table 2, wherein LHPP was amplified using the LHPP F1/R1 primer pair.
To calculate the relative expression level (Erel) of LHPP (target gene) in an saRNA-transfected sample relative to control treatment (Mock), the Ct values of the target gene and the two internal reference genes were substituted into formula 1
Erel=2^(CtT^m^-CtT^s^)/((2^(CtR1^m^-CtR1^s^)*2^(CtR2^m^-CtR2^s^))^(1/2))
wherein CtTm was the Ct value of the target gene from the control (Mock) sample; CtTs was the Ct value of the target gene from the saRNA-treated sample; CtR1m was the Ct value of the internal reference gene 1 from the control (Mock) sample; CtR1s was the Ct value of the internal reference gene 1 from the saRNA-treated sample; CtR2m was the Ct value of the internal reference gene 2 from the control (Mock) sample; and CtR2s was the Ct value of the internal reference gene 2 from the saRNA-treated sample.
In order to obtain saRNAs capable of activating LHPP transcription, Huh7 cells were transfected with each of the aforementioned 290 saRNAs with a transfection concentration of 10 nM, and 72 hours later, according to the same method as described above, the cells were lysed and analyzed by one-step RT-qPCR to obtain the relative (compared with the control (Mock)) expression level of LHPP gene for each saRNA-treated sample. […] The observed maximum activation and maximum inhibition is 3.46 fold and 0.49 fold, respectively, saRNAs with activating activity are referred to as activating saRNAs, and the saRNAs with inhibiting activity are referred to as inhibiting saRNAs.

Substance: RAG7-106: saRNA duplex; sense GAAAGCUUCCGAAAAGGACTT (SEQ ID NO: 150), antisense GUCCUUUUCGGAAGCUUUCTT (SEQ ID NO: 314) (sugars from the 5' end r19 d2, backbone not given here)
- Fold of changes in relative LHPP mRNA expression level: 1.12 fold
- Fold of changes in relative LHPP mRNA expression level (log2): 0.17 log2

Substance: RAG7-107: saRNA duplex; sense AGAAAGCUUCCGAAAAGGATT (SEQ ID NO: 156), antisense UCCUUUUCGGAAGCUUUCUTT (SEQ ID NO: 320) (sugars from the 5' end r19 d2, backbone not given here)
- Fold of changes in relative LHPP mRNA expression level: 1.11 fold
- Fold of changes in relative LHPP mRNA expression level (log2): 0.15 log2

Substance: RAG7-109: saRNA duplex; sense GAAGAAAGCUUCCGAAAAGTT (SEQ ID NO: 90), antisense CUUUUCGGAAGCUUUCUUCTT (SEQ ID NO: 254) (sugars from the 5' end r19 d2, backbone not given here)
- Fold of changes in relative LHPP mRNA expression level: 1.24 fold
- Fold of changes in relative LHPP mRNA expression level (log2): 0.31 log2

Substance: RAG7-111: saRNA duplex; sense GGGAAGAAAGCUUCCGAAATT (SEQ ID NO: 117), antisense UUUCGGAAGCUUUCUUCCCTT (SEQ ID NO: 281) (sugars from the 5' end r19 d2, backbone not given here)
- Fold of changes in relative LHPP mRNA expression level: 1.18 fold
- Fold of changes in relative LHPP mRNA expression level (log2): 0.24 log2

Substance: RAG7-112: saRNA duplex; sense UGGGAAGAAAGCUUCCGAATT (SEQ ID NO: 82), antisense UUCGGAAGCUUUCUUCCCATT (SEQ ID NO: 246) (sugars from the 5' end r19 d2, backbone not given here)
- Fold of changes in relative LHPP mRNA expression level: 1.26 fold
- Fold of changes in relative LHPP mRNA expression level (log2): 0.33 log2

Substance: RAG7-113: saRNA duplex; sense CUGGGAAGAAAGCUUCCGATT (SEQ ID NO: 120), antisense UCGGAAGCUUUCUUCCCAGTT (SEQ ID NO: 284) (sugars from the 5' end r19 d2, backbone not given here)
- Fold of changes in relative LHPP mRNA expression level: 1.18 fold
- Fold of changes in relative LHPP mRNA expression level (log2): 0.24 log2

Substance: RAG7-114: saRNA duplex; sense CCUGGGAAGAAAGCUUCCGTT (SEQ ID NO: 73), antisense CGGAAGCUUUCUUCCCAGGTT (SEQ ID NO: 237) (sugars from the 5' end r19 d2, backbone not given here)
- Fold of changes in relative LHPP mRNA expression level: 1.28 fold
- Fold of changes in relative LHPP mRNA expression level (log2): 0.36 log2

Substance: RAG7-119: saRNA duplex; sense GAUCUCCUGGGAAGAAAGCTT (SEQ ID NO: 57), antisense GCUUUCUUCCCAGGAGAUCTT (SEQ ID NO: 221) (sugars from the 5' end r19 d2, backbone not given here)
- Fold of changes in relative LHPP mRNA expression level: 1.35 fold
- Fold of changes in relative LHPP mRNA expression level (log2): 0.43 log2

Substance: RAG7-120: saRNA duplex; sense UGAUCUCCUGGGAAGAAAGTT (SEQ ID NO: 141), antisense CUUUCUUCCCAGGAGAUCATT (SEQ ID NO: 305) (sugars from the 5' end r19 d2, backbone not given here)
- Fold of changes in relative LHPP mRNA expression level: 1.14 fold
- Fold of changes in relative LHPP mRNA expression level (log2): 0.19 log2

Substance: RAG7-121: saRNA duplex; sense CUGAUCUCCUGGGAAGAAATT (SEQ ID NO: 52), antisense UUUCUUCCCAGGAGAUCAGTT (SEQ ID NO: 216) (sugars from the 5' end r19 d2, backbone not given here)
- Fold of changes in relative LHPP mRNA expression level: 1.36 fold
- Fold of changes in relative LHPP mRNA expression level (log2): 0.45 log2
